Test results reported in patent US8614218B2, “Fused bicyclic pyrimidines” (Bayer Intellectual Property GmbH, priority 2007, dated 2013).

Tested on: A549 cells
Assay: Cellular proliferation/cytotoxicity assay (Alamar Blue), A549
Format: cell-based
Settings: Homo sapiens, 72 h, Alamar Blue (Resazurin), read-out: Anti-proliterative/Cytotoxic activity (A549 cells)
Method: Cellular Proliferation/Cytotoxicity Assay:
The anti-proliferative activity of the compounds as described herein, is evaluated using the OvCAR3, HCT116 and A549 cell lines and the Alamar Blue (Resazurin) cell viability assay (O'Brien et al. Eur J Biochem 267, 5421-5426, 2000). Resazurin is reduced to the fluorescent resorufin by cellular dehydrogenase activity, correlating with viable, proliferating cells. Test compounds are dissolved as 10 mM solutions in DMSO and subsequently diluted. Cells like HCT116 or A549 cells were seeded into 96 well flat bottom plates at a density of 10000 cells/well (OvCAR3 cells), 1000 cells/well (HCT116 cells) or 2000 cells/well (A549 cells) in a volume of 200 μl/well. 24 hours after seeding, 1 μl each of the compound dilutions are added into each well of the 96 well plates. Each compound dilution is tested as at least as duplicates. Wells containing untreated control cells were filled with 200 μl DMEM (Dulbecco's Modified Eagle Medium) containing 0.5 vol % v:v DMSO. The cells are then incubated with the substances for 72 h at 37° C. in a humidified atmosphere containing 5 vol % CO2. To determine the viability of the cells, 20 μl of a Resazurin solution (90 mg/l) are added. After 4 h incubation at 37° C., the fluorescence is measured by extinction at λ=544 nm and an emission of λ=590 nm (Wallac Victor2; Perkin Elmer, USA). For the calculation of the cell viability, the emission value from untreated cells is set as 100% viability and the fluorescence intensity of treated cells are set in relation to the values of untreated cells. Viabilities are expressed as % values. The corresponding IC50 values of the compounds for cytotoxic activity are determined from the concentration-effect curves by means of non-linear regression. The analysis of the data is performed using a biostatistical program (GraphPad Prism, USA).
Representative IC50 values for anti-proliferative/cytotoxic potency determined in the aforementioned assay follow from the following table, in which the numbers of the compound correspond to the numbers of the examples.

Row | SMILES | IC50 [µM]
1 | Cc1nc2nc(-c3ccc(CN4CCC(c5n[nH]c(-c6nccs6)n5)CC4)cc3)c(-c3ccccc3)cn2n1 [Example 43, 2-Methyl-6-phenyl-5-[4-({4-[5-(1,3-thiazol-2-yl)-1H-1,2,4-triazol-3-yl]piperidin-1-yl}methyl)phenyl][1,2,4]triazolo[1,5-a]pyrimidine] | < 10
2 | Cc1cc2nc(-c3ccc(CN4CCC(c5n[nH]c(-c6ccccn6)n5)CC4)cc3)c(-c3ccccc3)cn2n1 [Example 44, 2-Methyl-6-phenyl-5-(4-{[4-(5-pyridin-2-yl-1H-1,2,4-triazol-3-yl)piperidin-1-yl]methyl}phenyl)pyrazolo[1,5-a]pyrimidine] | > 10
3 | Cc1nc2nc(-c3ccc(CN4CCC(c5cc(-c6ccccn6)n[nH]5)CC4)cc3)c(-c3ccccc3)cn2n1 [Example 46, 2-Methyl-6-phenyl-5-(4-{[4-(3-pyridin-2-yl-1H-pyrazol-5-yl)piperidin-1-yl]methyl}phenyl)[1,2,4]triazolo[1,5-a]pyrimidine] | > 10
4 | Cc1nc2nc(-c3ccc(CN4CCC(c5n[nH]c(-c6ccncc6)n5)CC4)cc3)c(-c3ccccc3)cn2n1 [Example 47, 2-Methyl-6-phenyl-5-(4-{[4-(5-pyridin-4-yl-1H-1,2,4-triazol-3-yl)piperidin-1-yl]methyl}phenyl)[1,2,4]triazolo[1,5-a]pyrimidine] | < 10
5 | c1ccc(-c2cn3nc(C4CC4)cc3nc2-c2ccc(CN3CCC(c4n[nH]c(-c5ccccn5)n4)CC3)cc2)cc1 [Example 48, 2-Cyclopropyl-6-phenyl-5-(4-{[4-(5-pyridin-2-yl-1H-1,2,4-triazol-3-yl)piperidin-1-yl]methyl}phenyl)pyrazolo[1,5-a]pyrimidine] | < 10
6 | c1ccc(-c2nc(C3CCN(Cc4ccc(-c5nc6nccn6cc5-c5ccsc5)cc4)CC3)n[nH]2)nc1 [Example 51, 7-(4-{[4-(5-Pyridin-2-yl-1H-1,2,4-triazol-3-yl)piperidin-1-yl]methyl}phenyl)-6-(3-thienyl)imidazo[1,2-a]pyrimidine] | < 10
7 | Brc1nc2nc(-c3ccc(CN4CCC(c5n[nH]c(-c6ccccn6)n5)CC4)cc3)c(-c3ccccc3)cn2n1 [Example 52, 2-Bromo-6-phenyl-5-(4-{[4-(5-pyridin-2-yl-1H-1,2,4-triazol-3-yl)piperidin-1-yl]methyl}phenyl)[1,2,4]triazolo[1,5-a]pyrimidine] | < 10
8 | C#Cc1nc2nc(-c3ccc(CN4CCC(c5n[nH]c(-c6ccccn6)n5)CC4)cc3)c(-c3ccccc3)cn2n1 [Example 53, 2-Ethynyl-6-phenyl-5-(4-{[4-(5-pyridin-2-yl-1H-1,2,4-triazol-3-yl)piperidin-1-yl]methyl}phenyl)[1,2,4]triazolo[1,5-a]pyrimidine] | < 10
9 | Cc1nc2nc(-c3ccc(CN4CCC(c5n[nH]c(-c6ccccn6)n5)CC4)cc3)c(-c3ccsc3)cn2n1 [Example 54, 2-Methyl-5-(4-{[4-(5-pyridin-2-yl-1H-1,2,4-triazol-3-yl)piperidin-1-yl]methyl}phenyl)-6-(3-thienyl)[1,2,4]triazolo[1,5-a]pyrimidine] | < 10
10 | CN(C)c1nc2nc(-c3ccc(CN4CCC(c5n[nH]c(-c6ccccn6)n5)CC4)cc3)c(-c3ccccc3)cn2n1 [Example 62, N,N-Dimethyl-6-phenyl-5-(4-{[4-(5-pyridin-2-yl-1H-1,2,4-triazol-3-yl)piperidin-1-yl]methyl}phenyl)[1,2,4]triazolo[1,5-a]pyrimidin-2-amine] | < 10
11 | FC(F)(F)c1nc2nc(-c3ccc(CN4CCC(c5n[nH]c(-c6ccccn6)n5)CC4)cc3)c(-c3ccccc3)cn2n1 [Example 63, 6-Phenyl-5-(4-{[4-(5-pyridin-2-yl-1H-1,2,4-triazol-3-yl)piperidin-1-yl]methyl}phenyl)-2-(trifluoromethyl)[1,2,4]triazolo[1,5-a]pyrimidine] | > 10
12 | Cc1nc2nc(-c3ccc(CN4CCC(c5n[nH]c(-c6ccccn6)n5)CC4)cc3)c(-c3ccccc3)c(N(C)C)n2n1 [Example 64, N,N,2-Trimethyl-6-phenyl-5-(4-{[4-(5-pyridin-2-yl-1H-1,2,4-triazol-3-yl)piperidin-1-yl]methyl}phenyl)[1,2,4]triazolo[1,5-a]pyrimidin-7-amine] | < 10
13 | CNc1nc2nc(-c3ccc(CN4CCC(c5n[nH]c(-c6ccccn6)n5)CC4)cc3)c(-c3ccccc3)cn2n1 [Example 65, N-Methyl-6-phenyl-5-(4-{[4-(5-pyridin-2-yl-1H-1,2,4-triazol-3-yl)piperidin-1-yl]methyl}phenyl)[1,2,4]triazolo[1,5-a]pyrimidin-2-amine] | < 10
14 | COc1nc2nc(-c3ccc(CN4CCC(c5n[nH]c(-c6ccccn6)n5)CC4)cc3)c(-c3ccccc3)cn2n1 [Example 66, 2-Methoxy-6-phenyl-5-(4-{[4-(5-pyridin-2-yl-1H-1,2,4-triazol-3-yl)piperidin-1-yl]methyl}phenyl)[1,2,4]triazolo[1,5-a]pyrimidine] | < 10
15 | Nc1nc2nc(-c3ccc(CN4CCC(c5n[nH]c(-c6ccccn6)n5)CC4)cc3)c(-c3ccccc3)cn2n1 [Example 67, 6-Phenyl-5-(4-{[4-(5-pyridin-2-yl-1H-1,2,4-triazol-3-yl)piperidin-1-yl]methyl}phenyl)[1,2,4]triazolo[1,5-a]pyrimidin-2-amine] | < 10
16 | c1ccc(-c2cn3ccnc3nc2-c2ccc(CN3CCC(c4nc(-c5ccc[nH]5)n[nH]4)CC3)cc2)cc1 [Example 68, 6-Phenyl-7-[4-({4-[3-(1H-pyrrol-2-yl)-1H-1,2,4-triazol-5-yl]piperidin-1-yl}methyl)phenyl]imidazo[1,2-a]pyrimidine] | < 10
17 | c1ccc(-c2cn3nccc3nc2-c2ccc(CN3CCC(c4nc(-c5ncccn5)n[nH]4)CC3)cc2)cc1 [Example 69, 6-Phenyl-5-(4-{[4-(3-pyrimidin-2-yl-1H-1,2,4-triazol-5-yl)piperidin-1-yl]methyl}phenyl)pyrazolo[1,5-a]pyrimidine] | > 10
18 | c1ccc(-c2cn3nccc3nc2-c2ccc(CN3CCC(c4nc(-c5nccs5)n[nH]4)CC3)cc2)cc1 [Example 70, 6-Phenyl-5-[4-({4-[3-(1,3-thiazol-2-yl)-1H-1,2,4-triazol-5-yl]piperidin-1-yl}methyl)phenyl]pyrazolo[1,5-a]pyrimidine] | > 10
19 | c1ccc(-c2cn3nccc3nc2-c2ccc(CN3CCC(c4nc(-c5ccncc5)n[nH]4)CC3)cc2)cc1 [Example 71, 6-Phenyl-5-(4-{[4-(3-pyridin-4-yl-1H-1,2,4-triazol-5-yl)piperidin-1-yl]methyl}phenyl)pyrazolo[1,5-a]pyrimidine] | > 10
20 | c1ccc(-c2cn3nccc3nc2-c2ccc(CN3CCC(c4nc(-c5ccc[nH]5)n[nH]4)CC3)cc2)cc1 [Example 72, 6-Phenyl-5-[4-({4-[3-(1H-pyrrol-2-yl)-1H-1,2,4-triazol-5-yl]piperidin-1-yl}methyl)phenyl]pyrazolo[1,5-a]pyrimidine] | < 10
21 | Cc1nc2nc(-c3ccc(CN4CCC(c5nc(-c6ccc[nH]6)n[nH]5)CC4)cc3)c(-c3ccccc3)cn2n1 [Example 73, 2-Methyl-6-phenyl-5-[4-({4-[3-(1H-pyrrol-2-yl)-1H-1,2,4-triazol-5-yl]piperidin-1-yl}methyl)phenyl][1,2,4]triazolo[1,5-a]pyrimidine] | < 10
